In patent US20170143701A1, “CARBOHYDRATE METABOLISM-AMELIORATING AGENT” (SUNTORY HOLDINGS LIMITED, priority 2014, published 2017):

Test system: NCI-H716 cells
Assay: In vitro GLP-1 secretion-accelerating action: amount of active GLP-1 secreted (ELISA)
Assay type: cell-based
Conditions: 1 hour; for Significant difference (p < 0.05) vs control group, amount of active GLP-1 secreted: 10 mM, Student's t-test; for Amount of active GLP-1 secreted (relative value to control group as 100), average value: cyclic dipeptide 10 mM with 10 μM Sitagliptin phosphate, group with no cyclic dipeptide = 100
Experimental: Among the cyclic dipeptides, 92 highly water-soluble cyclic dipeptides were used in the following experiment. In each well of a Poly-L-Lysine 96-well plate, NCI-H716 cells suspended in 100 μL of a DMEM (with 10% FBS, 2 mM glutamine, and 1% antibiotics added in advance) were seeded at 0.5×10^5 cells/well, and cultured in a CO2 incubator (manufactured by ESPEC CORP.) for 48 hours. After washing with PBS(+), 100 μL of a PBS(+) solution with each cyclic dipeptide at a final concentration of 10 mM and 10 μM of Sitagliptin phosphate added therein was added to the cells. After 1 hour, the resultant solution was recovered, and the amount of active GLP-1 in the solution was measured by using the ELISA kit. In the analysis, the amount of active GLP-1 for a group with no cyclic dipeptide added was defined as 100, and relative values thereto were used.

SMILES | Significant difference (p < 0.05) vs control group, amount of active GLP-1 secreted (Table 3, Experiment 3) | Amount of active GLP-1 secreted (relative value to control group as 100), average value (Table 3, Experiment 3) | Significant difference (p < 0.05) vs control group, amount of active GLP-1 secreted (Table 4, Experiment 4) | Amount of active GLP-1 secreted (relative value to control group as 100), average value (Table 4, Experiment 4)
CC(O)C1NC(=O)C(CCC(=O)O)NC1=O (centres unmarked) [compound 157, Cyclo(Thr-Glu)] | No | 139 |  | 
NC(N)=NCCC[C@@H]1NC(=O)[C@H](CO)NC1=O [compound 159, cyclo-arginyl-serine] | Yes | 135 |  | 
C[C@H](O)[C@@H]1NC(=O)[C@H](CC(=O)O)NC1=O [compound 165, Cyclo(Asp-Thr)] | No | 140 |  | 
C[C@H](O)[C@@H]1NC(=O)[C@H](CC(N)=O)NC1=O [compound 166, Cyclo(Asn-Thr)] | No | 149 |  | 
C[C@H](O)[C@@H]1NC(=O)[C@H](CCC(N)=O)NC1=O [compound 167, Cyclo(Gln-Thr)] | No | 156 |  | 
C[C@H](O)[C@@H]1NC(=O)[C@H](CCCN=C(N)N)NC1=O [compound 168, Cyclo(Arg-Thr)] | No | 142 |  | 
NC(=O)C[C@@H]1NC(=O)[C@H](CC(=O)O)NC1=O [compound 170, Cyclo(Asn-Asp)] | No | 125 |  | 
NC(=O)CCC1NC(=O)C(CC(=O)O)NC1=O (centres unmarked) [compound 171, Cyclo(Gln-Asp)] | No | 120 |  | 
CSCCC1NC(=O)C(CC(=O)O)NC1=O (centres unmarked) [compound 172, Cyclo(Met-Asp)] |  |  | No | 141
CSCCC1NC(=O)C(CC(N)=O)NC1=O (centres unmarked) [compound 175, cyclo-asparaginyl-methionine] |  |  | Yes | 218
NC(=O)CCC1NC(=O)C(CCC(N)=O)NC1=O (centres unmarked) [compound 176, Cyclo(Gln-Gln)] |  |  | No | 111
CSCC[C@@H]1NC(=O)[C@H](CCC(N)=O)NC1=O [compound 186, cyclo-glutaminyl-methionine] |  |  | Yes | 191
NC(=O)CCC1NC(=O)C2CCCN2C1=O (centres unmarked) [compound 188, Cyclo(Gln-Pro)] |  |  | No | 132
N=C(N)NCCC[C@@H]1NC(=O)[C@H](Cc2c[nH]c3ccccc23)NC1=O [compound 189, cyclo-tryptophanyl-arginine] |  |  | Yes | 314
O=C(O)CCC1NC(=O)C(CO)NC1=O (centres unmarked) [compound 192, cyclo-seryl-glutamic acid] |  |  | Yes | 
N=C(N)NCCC[C@@H]1NC(=O)[C@H](CC(N)=O)NC1=O [compound 197, cyclo-asparaginyl-arginine] |  |  | Yes | 359
NC(=O)CC1NC(=O)C2CCCN2C1=O (centres unmarked) [compound 201, cyclo-asparaginyl-proline] |  |  | Yes | 430
N=C(N)NCCC[C@@H]1NC(=O)[C@H](CCCNC(=N)N)NC1=O [compound 212, cyclo-arginyl-arginine] |  |  | Yes | 1050
